From DBAASP
Converted amounts (≈) assume the structure as drawn. “And” between values parts separate entries of the source, which are not always exact repeats. Equal entries are not always repeated. One block for each compound: values may come before it.

Assays:
Test in all cases: ≥ marks a high value that may be exact or a test limit, other limits are often not marked, values filed in µg/mL are converted to µM
Vibrio cholerae non-O1 = tested on: Vibrio cholerae non-O1
Vibrio cholerae non-O139 = tested on: Vibrio cholerae non-O139
[1] = tested on: Staphylococcus epidermidis ATCC 12228
[2] = tested on: Staphylococcus aureus ATCC 25923
[3] = tested on: Escherichia coli ATCC 25922
[4] = tested on: Salmonella enterica subsp. enterica serovar Typhi DMST 22842
[5] = tested on: Pseudomonas aeruginosa PAO1
[6] = tested on: Pseudomonas aeruginosa 253
[7] = tested on: Pseudomonas aeruginosa 919
[8] = tested on: Staphylococcus aureus ATCC 29213
Staphylococcus aureus MR = tested on: Staphylococcus aureus MR
Staphylococcus aureus = tested on: Staphylococcus aureus
[9] = tested on: Pseudomonas aeruginosa 910
[10] = tested on: Enterococcus faecalis ATCC 29212
[11] = tested on: Staphylococcus epidermidis PIA 8400
[12] = tested on: Pseudomonas aeruginosa ATCC 27853
Vibrio vulnificus 204 = tested on: Vibrio vulnificus 204
Streptococcus agalactiae = tested on: Streptococcus agalactiae
Vibrio alginolyticus = tested on: Vibrio alginolyticus
[13] = tested on: Staphylococcus aureus BCRC 10780
[14] = tested on: Staphylococcus sp. BCRC 10451
[15] = tested on: Micrococcus luteus BCRC 11034
[16] = tested on: Streptococcus pneumoniae BCRC 10794
[17] = tested on: Vibrio harveyi BCRC 13812
[18] = tested on: Neisseria gonorrhoeae FA19
[19] = tested on: Neisseria gonorrhoeae F62
[20] = tested on: Listeria monocytogenes ATCC 35152
[21] = tested on: Klebsiella pneumoniae ATCC 13883
[22] = tested on: Enterobacter cloacae ATCC 13047
[23] = tested on: Candida albicans ATCC 2002
Pseudomonas aeruginosa = tested on: Pseudomonas aeruginosa
[24] = tested on: Haemophilus influenzae ATCC 49766
Enterobacter cloacae = tested on: Enterobacter cloacae
Klebsiella aerogenes = tested on: Klebsiella aerogenes
Escherichia coli ML-35p = tested on: Escherichia coli ML-35p
Escherichia coli = tested on: Escherichia coli
[25] = tested on: Staphylococcus aureus ATCC 43300
[26] = tested on: Haemophilus influenzae ATCC 49247
[27] = tested on: Klebsiella pneumoniae ATCC 700603
Candida albicans = tested on: Candida albicans
[28] = tested on: Escherichia coli ATCC 35218
[29] = tested on: Staphylococcus aureus ATCC 25325

Compound: CC[C@H](C)[C@H](NC(=O)[C@H](CCCN=C(N)N)NC(=O)[C@H](Cc1c[nH]c2ccccc12)NC(=O)[C@H](CCCN=C(N)N)NC(=O)[C@H](CCCN=C(N)N)NC(=O)[C@@H](N)CCCCN)C(=O)N[C@@H](Cc1c[nH]c2ccccc12)C(=O)N[C@@H](CC(C)C)C(=O)N[C@H](C(N)=O)C(C)C [KRRWRIWLV]
MIC [5]: 4 µM (≈ 5.25 µg/mL)
MIC [6]: 5.66 µM (≈ 7.42 µg/mL)
MIC [7]: 4 µM (≈ 5.25 µg/mL)
MIC [8]: 6.09 µM (≈ 7.99 µg/mL)
MIC (Staphylococcus aureus MR): 13 µM and 25.1 µM
MIC (Staphylococcus aureus): 6.09 µM (≈ 7.99 µg/mL)
MIC [3]: 6.09 µM (≈ 7.99 µg/mL)
MIC [9]: 8 µM (≈ 10.5 µg/mL)
MIC [10]: 25.1 µM (≈ 33 µg/mL)
MIC [11]: 3.05 µM (≈ 4 µg/mL)
MIC [12]: 13 µM and 6.09 µM

Compound: CC(C)C[C@H](N)C(=O)N[C@H](C(=O)N[C@@H](Cc1ccc(O)cc1)C(=O)N[C@H]1CSSC[C@@H](C(=O)N[C@H](C(=O)N[C@H](C(=O)N[C@H](C(N)=O)C(C)C)[C@@H](C)O)C(C)C)NC(=O)[C@H](Cc2ccccc2)NC(=O)[C@H](CCCN=C(N)N)NC(=O)[C@H](CCCN=C(N)N)NC(=O)[C@H](CCCN=C(N)N)NC1=O)[C@@H](C)O [LTYCRRRFCVTV]
MIC [18]: 1.37 µM (≈ 2.07 µg/mL)
MIC [19]: 0.45 µM (≈ 0.681 µg/mL)

Compound: CC(C)C[C@H](NC(=O)[C@H](CCCCN)NC(=O)[C@H](CCCCN)NC(=O)[C@H](Cc1ccccc1)NC(=O)[C@H](Cc1ccccc1)NC(=O)[C@@H](N)CCCCN)C(=O)N[C@@H](CCCCN)C(=O)N[C@@H](CCCCN)C(=O)N[C@@H](C)C(=O)N[C@H](C(=O)N[C@@H](CCCCN)C(=O)N[C@@H](CCCCN)C(=O)NCC(=O)N[C@@H](Cc1ccccc1)C(=O)N[C@@H](CCCCN)C(=O)N[C@@H](CCCCN)C(=O)N[C@@H](Cc1ccccc1)C(=O)N[C@@H](C)C(=O)N[C@@H](CCCCN)C(=O)N[C@H](C(=O)O)C(C)C)C(C)C [KFFKKLKKAVKKGFKKFAKV]
MIC [22]: ≥ 41.7 µM
MIC [23]: ≥ 83.4 µM
MIC [21]: 2.61 µM (≈ 6.25 µg/mL)
MIC [5]: 5.21 µM (≈ 12.5 µg/mL)
MIC (Pseudomonas aeruginosa): 5.21 µM (≈ 12.5 µg/mL)
MIC [24]: 2.61 µM (≈ 6.25 µg/mL)
MIC (Enterobacter cloacae): ≥ 41.7 µM
MIC (Klebsiella aerogenes): ≥ 41.7 µM
MIC (Staphylococcus aureus): 5.21 µM (≈ 12.5 µg/mL)
MIC [2]: 5.21 µM (≈ 12.5 µg/mL)
MIC (Escherichia coli ML-35p): 2.61 µM (≈ 6.25 µg/mL)
MIC [3]: 5.21 µM (≈ 12.5 µg/mL)
MIC (Escherichia coli): 5.21 µM (≈ 12.5 µg/mL)
MIC [25]: 1.3 µM (≈ 3.13 µg/mL)
MIC [26]: 1.3 µM (≈ 3.13 µg/mL)
MIC [27]: 1.3 µM (≈ 3.13 µg/mL)
MIC (Candida albicans): > 83.4 µM
MIC [10]: 10.4 µM (≈ 25 µg/mL)

More lines, main results first:

MIC [1]: 36.5 µM (≈ 91 µg/mL)
MIC [2]: > 36.5 µM
MIC [3]: > 36.5 µM
MIC [4]: ≥ 36.5 µM
Compound: CC(C)[C@H](NC(=O)CNC(=O)[C@@H](N)CC(N)=O)C(=O)N[C@@H](CCC(N)=O)C(=O)N1CCC[C@H]1C(=O)N[C@@H](Cc1c[nH]c2ccccc12)C(=O)N[C@@H](Cc1ccc(O)cc1)C(=O)N[C@@H](CCCCN)C(=O)N[C@@H](Cc1c[nH]c2ccccc12)C(=O)N[C@@H](Cc1c[nH]c2ccccc12)C(=O)N[C@@H](CCCCN)C(=O)N[C@@H](Cc1c[nH]c2ccccc12)C(=O)N[C@@H](Cc1c[nH]c2ccccc12)C(=O)N[C@@H](CCCCN)C(=O)N[C@@H](CCCCN)C(=O)N[C@@H](Cc1c[nH]c2ccccc12)C(=O)N[C@@H](Cc1c[nH]c2ccccc12)C(N)=O [NGVQPWYKWWKWWKKWW]
MIC (Vibrio cholerae non-O1): ≥ 36.5 µM
MIC (Vibrio cholerae non-O139): ≥ 36.5 µM

MIC (Vibrio vulnificus 204): ≥ 59.3 µM
MIC (Streptococcus agalactiae): 29.7 µM (≈ 51.2 µg/mL)
MIC (Vibrio alginolyticus): 14.8 µM (≈ 25.6 µg/mL)
MIC [13]: 14.8 µM (≈ 25.6 µg/mL)
MIC [14]: 3.71 µM (≈ 6.4 µg/mL)
MIC [15]: 14.8 µM (≈ 25.6 µg/mL)
MIC [16]: 29.7 µM (≈ 51.2 µg/mL)
MIC [17]: 7.42 µM (≈ 12.8 µg/mL)
Compound: CC[C@H](C)[C@H](NC(=O)[C@H](Cc1ccccc1)NC(=O)CNC(C)=O)C(=O)N[C@@H](Cc1ccccc1)C(=O)N[C@@H](Cc1cnc[nH]1)C(=O)N[C@H](C(=O)N[C@H](C(=O)N[C@@H](CCCCN)C(=O)NCC(=O)N[C@@H](CC(C)C)C(=O)N[C@@H](Cc1ccccc1)C(=O)N[C@@H](Cc1cnc[nH]1)C(=O)N[C@@H](C)C(=O)NCC(=O)N[C@@H](CCCCN)C(N)=O)[C@@H](C)CC)[C@@H](C)CC [GFIFHIIKGLFHAGK]

MIC [20]: 22.3 µM (≈ 30 µg/mL)
MIC [21]: 29.7 µM (≈ 40 µg/mL)
MIC [2]: 18.6 µM (≈ 25 µg/mL)
MIC [3]: 22.3 µM (≈ 30 µg/mL)
MIC [12]: 37.2 µM (≈ 50 µg/mL)
Compound: CC(C)C[C@H](NC(=O)[C@H](CCCCN)NC(=O)[C@@H](N)CCCCN)C(=O)NCC(=O)N[C@@H](CCC(=O)O)C(=O)N1CCC[C@H]1C(=O)N[C@@H](CO)C(=O)N[C@@H](CS)C(=O)N[C@@H](CC(N)=O)C(=O)N[C@@H](CCCCN)C(=O)N[C@@H](CC(C)C)C(=O)N[C@@H](CCCCN)C(N)=O [KKLGEPSCNKLK]

MIC [28]: ≥ 56.1 µM
MIC [29]: ≥ 56.3 µM
MIC [10]: 47.2 µM (≈ 78.3 µg/mL)
MIC [12]: 52 µM (≈ 86.2 µg/mL)
Compound: CC(C)[C@H](NC(=O)[C@H](Cc1cnc[nH]1)NC(=O)[C@H](C)NC(=O)[C@H](C)NC(=O)[C@H](CCCCN)NC(=O)[C@@H](N)CCCCN)C(=O)NCC(=O)N[C@@H](CCCCN)C(=O)N[C@@H](Cc1cnc[nH]1)C(=O)N[C@H](C(=O)NCC(=O)N[C@@H](CCCCN)C(=O)N[C@@H](C)C(=O)N[C@@H](C)C(=O)N[C@@H](CCCCN)C(=O)N[C@@H](CCCCN)C(=O)O)C(C)C [KKAAHVGKHVGKAAKK]
